Experimental findings from PMC11241769, “Comprehensive Characterization of Phytochemical Composition, Membrane Permeability, and Antiproliferative Activity of Juglans nigra Polyphenols” (International Journal of Molecular Sciences, 2024) are described below.

Data set [1] concerns HT-29 colorectal carcinoma cells. Description: in vitro cytostatic (antiproliferative) activity, Alamar Blue (resazurin) assay, HT-29. To be noted: Homo sapiens. The class given is cell-based. As for the experimental part:
(§1) For the evaluation of the in vitro antiproliferative activity of the compounds, the cell viability was determined by resazurin (Alamar Blue) assay on MDA-MB 231 breast carcinoma, A2058 melanoma, and HT-29 colon carcinoma cell culture. The control wells were treated only with serum-free medium.
(§2) The cytostatic effect of the compounds was studied on tumor cell cultures in vitro. MDA-MB-231 human breast adenocarcinoma cells were cultured in DMEM medium supplemented with 10% FBS, 2 mM L-glutamine, penicillin–streptomycin antibiotics mixture (50 IU/mL, and 50 μg/mL, respectively), 1 mM sodium pyruvate, and 1% non-essential amino acid mixture. A2058 human melanoma cells, and HT-29 colorectal carcinoma cells were cultured in RPMI medium supplemented with 10% FBS, 2 mM L-glutamine, and penicillin–streptomycin antibiotics mixture (50 IU/mL and 50 μg/mL, respectively). Cell lines were generous gifts from Dr. József Tóvári (Department of Experimental Pharmacology, National Institute of Oncology, Budapest, Hungary).
(§3) All cell cultures were maintained at 37 °C in a humidified atmosphere with 5% CO2. The cells were grown to confluence and then divided into 96-well tissue culture plates with the initial cell number of 5.0 × 10^3 cells/well. […] Control cells were treated with serum-free medium or DMSO (c = 1.0 v/v %) at the same conditions. After this incubation period, cells were washed twice with serum-free medium, and following that, they were cultured for another 72 h in a 10% serum-containing medium at 37 °C. After that, cell viability was determined using the Alamar Blue assay. Alamar Blue is a non-toxic, resazurin-based dye that living cells reduce to a fluorescent molecule, resorufin [99]. Resazurin sodium salt (Merck, Darmstadt, Germany) was dissolved in PBS at c = 0.15 mg/mL, pH 7.4). A measure of 22 uL of the dye was added to each well and incubated at 37 °C for 3 h until the pink color of the reduced dye appeared. Fluorescence intensity in each well was measured using a Synergy H4 multimode microplate reader (BioTek, Winooski, VT); at λex = 530/30 and λem = 610/10 nm.
(§4) The cytostasis values were expressed in the percentage of untreated control.

Data set [2] can be described thus: PAMPA-GI (parallel artificial membrane permeability assay, phosphatidylcholine membrane). As to conditions: for logPe PAMPA-GI (n = 9): donor pH 6.8, acceptor pH 7.4, 37 °C, 4 h, n.d. = not detected in the acceptor phase. The class given is in vitro ADME. As for the experimental part: (§5) For the PAMPA-BBB test, 5 μL of porcine polar brain lipid extract (PBLE) solution (16.0 mg PBLE + 8.0 mg cholesterol dissolved in 600.0 μL n-dodecane) was applied for each well of the 96-well polycarbonate-based filter donor plates (top plate) (Multiscreen™-IP, MAIPN4510, pore size 0.45 μm; Merck). For the PAMPA-GI assay, the wells of the top plate were coated with 5 μL of the mixture of 16.0 mg phosphatidylcholine + 8.0 mg cholesterol dissolved in 600.0 μL n-dodecane. A measure of 150.0 μL of aliquots of the filtrated donor solutions were placed on the membrane. The 96-well PTFE acceptor plates (bottom plates) (Multiscreen Acceptor Plate, MSSACCEPTOR; Merck), were filled with 300.0 μL buffer solution (0.01 M PBS buffer, pH 7.4). The donor plate was placed upon the acceptor plate, and both plates were incubated together at 37 °C for 4 h in a Heidolph Titramax 1000 Vibrating platform shaker (Heidolph, Schwabach, Germany).
(§6) After incubation, sandwich plates were separated and the concentrations of each compound in the starting donor solution and in the acceptor and donor wells were determined in triplicate by UHPLC-DAD method described above. […] The effective permeability and the membrane retention in the PAMPA-BBB and the PAMPA GI experiments were calculated by Equations (4)–(7), respectively:(4) Pe=−2.303/A(t−τSS)·VA·VD/VA+VD·lg1−VA+VD/1−MR·VD×CAt/CD0 (5) Pe=−2.303/A(t−τSS)·1/1+ra·lg−ra+1+ra/1−MR×CDt/CD0 where Pe is the effective permeability coefficient (cm/s), A is the filter area (0.24 cm^2), VD and VA are the volumes in the donor (0.15 cm^3) and acceptor phases (0.30 cm^3), t is the incubation time (s), τSS is the time (s) to reach steady-state (240 s), CD(t) is the concentration (mol/cm^3) of the compound in the donor phase at time t, CD(0) is the concentration (mol/cm^3) of the compound in the donor phase at time 0, and MR is the estimated membrane retention factor (the estimated mole fraction of solute lost to the membrane), ra is the sink asymmetry ratio (gradient-pH-induced), defined as:(6) ra=VD/VA×Pe(A→D)/Pe(D→A) (7) MR=1−CDt/CD0−VA/VDCAt/CD0
(§7) All experiments were performed in three triplicates on three consecutive days (n = 9), caffeine standard was used as positive, while rutin as negative control. ClogP values were calculated by ChemAxon Marvin 22.3.

The subject of data set [3] is A2058 human melanoma cells. Description: in vitro cytostatic (antiproliferative) activity, Alamar Blue (resazurin) assay, A2058. Format: cell-based. As for the experimental part: as §1, §2, §3, §4
Data set [4] concerns Vero E6 non-tumorous kidney cells. Description: selectivity study: cytostatic activity on non-tumorous Vero E6 cells, Alamar Blue assay. The class given is cell-based, African green monkey (C. sabaeus). As for the experimental part: (§8) To determine the selectivity, we assessed the compounds on the Vero E6 non-tumorous kidney cells from African green monkeys (C. sabaeus), and their cytostatic activity was determined (Table 3).
(§9) For the selectivity study, a non-human primate cell culture was used. Vero E6 cells were established from kidney tissue sampled from an African green monkey (C. sabaeus) They originated from a primary culture initiated in March 1962 by Yoshihiro Yasumura at Chiba University in Japan. Vero E6 cells were obtained from the European Collection of Authenticated Cell Cultures (ECACC 85020206) and maintained in DMEM high-glucose (4.5 g/L) medium (Lonza, Basel, Switzerland) containing 10% FBS (Gibco, Thermo Fisher Scientific) and supplemented with 2 mM of L-glutamine (Lonza), 1 mM sodium pyruvate (Merck), and CellCultureGuard (PanReacApplichem, ITW Reagents, Darmstadt, Germany) at 37 °C in a humidified atmosphere of 5% CO2.
as §3, §4

Data set [5] has as its system MDA-MB-231 human breast adenocarcinoma cells. The data set is described as follows: in vitro cytostatic (antiproliferative) activity, Alamar Blue (resazurin) assay, MDA-MB 231. Format: cell-based. As for the experimental part: as §1, §2, §3, §4
Data set [6] in a line: PAMPA-BBB (parallel artificial membrane permeability assay, porcine polar brain lipid extract). Format: in vitro ADME. As to conditions: for logPe PAMPA-BBB (n = 9): donor pH 7.4, acceptor pH 7.4, 37 °C, 4 h, n.d. = not detected in the acceptor phase. As to the method: as §5, §6, §7
Data set [7] deals with MDA-MB 231, A2058, HT-29 and Vero E6 cells. The data set is described as follows: in vitro cytostasis, Alamar Blue assay, cell lines taken together. The class given is cell-based. As to conditions: for effect on the tumor cell lines: tumor cell lines (MDA-MB 231, A2058, HT-29). As to the method:
as §1, §8, §2, §9, §3, §4

Setting [8] is: in vitro cytostatic activity, Alamar Blue (resazurin) assay, HT-29 colon carcinoma cell culture, read-out: IC50 (µM) HT-29.
[9] abbreviates: in vitro cytostatic activity, Alamar Blue (resazurin) assay, A2058 melanoma cell culture, read-out: IC50 (µM) A2058.
Where [10] appears, read: Chlorocebus sabaeus, Vero C1008, in vitro cytostatic activity, Alamar Blue assay, Vero E6 non-tumorous kidney cells, read-out: IC50 (µM) VERO E6 Non Tumorous.
[11] abbreviates: in vitro cytostatic activity, Alamar Blue (resazurin) assay, MDA-MB 231 breast carcinoma cell culture, read-out: IC50 (µM) MDA-MB 231.
The mark [12] stands for this setting: HT-29, read-out: IC50 (µM) HT-29.
[13] abbreviates: A2058, read-out: IC50 (µM) A2058.
Setting [14] is: Chlorocebus sabaeus, Vero C1008, read-out: IC50 (µM) VERO E6 Non Tumorous.
Setting [15] is: MDA-MB-231, read-out: IC50 (µM) MDA-MB 231.

Like-named read-outs stand apart in the source and are kept apart here.

As to `O=C(O)c1cc(O)c(O)c(O)c1` [Compound 14, gallic acid], the IC50 is 71.2 ± 7.9 µM in data set [1] (setting [8]), 57.2 ± 4.7 µM in data set [3] (setting [9]), 49.9 ± 2.8 µM in data set [4] (setting [10]) and 49.8 ± 3.5 µM in data set [5] (setting [11]). For the same molecule, the “logPe PAMPA-GI (n = 9)” value in data set [2] is reported as “not detected in the acceptor phase”. Further, the “logPe PAMPA-BBB (n = 9)” value in data set [6] is recorded as “not detected in the acceptor phase”.
Turning to `O=C(OCC1OC(OC2CCC(=O)c3ccc(O)c(O)c32)C(O)C(O)C1O)c1cc(O)c(O)c(O)c1` [Compound 92, 1,2,3,4-tetrahydro-7,8-dihydroxy-4-oxonaphthalen-1-yl-6-O-[(3,4,5-trihydroxyphenyl)carbonyl]-β-D-glucopyranoside], the half-maximal inhibitory concentration (IC50) was greater than 100 µM in data set [1] (setting [8]), greater than 100 µM in data set [3] (setting [9]), 61.1 ± 5.3 µM in data set [4] (setting [10]) and greater than 100 µM in data set [5] (setting [11]). In addition, the “logPe PAMPA-GI (n = 9)” value in data set [2] is reported as “not detected in the acceptor phase”. Also, the “effect on the tumor cell lines” value in data set [7] was “no effect”. The “logPe PAMPA-BBB (n = 9)” value in data set [6] was “not detected in the acceptor phase”.
As to `CC1OC(Oc2c(-c3ccc(O)c(O)c3)oc3cc(O)cc(O)c3c2=O)C(O)C(O)C1O` (centres unmarked) [Compound 106, quercetin-3-O-rhamnoside (quercitrin)], the “logPe PAMPA-GI (n = 9)” value in data set [2] is recorded as “not detected in the acceptor phase”. For the same molecule, in data set [7], the “effect on the tumor cell lines” value is reported as “no effect”. In addition, the IC50 in data set [4] (Chlorocebus sabaeus, Vero C1008, read-out: IC50 (cytostatic activity) on the Vero E6 cells) was determined as 15.9 µM. Further, the “logPe PAMPA-BBB (n = 9)” value in data set [6] was “not detected in the acceptor phase”.
In the case of `O=c1oc2c(O)c(O)cc3c(=O)oc4c(O)c(O)cc1c4c23` [Compound 143, ellagic acid], the inhibition at 100 µM in data set [1] (read-out: % inhibition at 100 µM, 100 µM, HT-29 cell culture) is 33%. Moreover, the IC50 in data set [1] (HT-29 colon carcinoma, treatment overnight, then 72 h culture, Alamar Blue, read-out: IC50 on HT-29 cell culture) was 12.1 µM; in data set [1] (setting [8]), greater than 100 µM; in data set [3] (setting [9]) it was greater than 100 µM; in data set [4] (setting [10]), greater than 100 µM; in data set [5] (setting [11]), greater than 100 µM. Further, the Papp at 4 h, 100 µM was 0.741 ×10⁻⁶ cm/s in data set [2] (PAMPA, read-out: logPe PAMPA-GI (n = 9) (converted)) and 0.224 ×10⁻⁶ cm/s in data set [6] (pig, PAMPA, pH 7.4, read-out: logPe PAMPA-BBB (n = 9) (converted)). Further, the “logPe PAMPA-GI (n = 9)” value in data set [2] is “less than −6.0”. Besides, the “IC50 (cytostatic activity) on the Vero E6 cells” value in data set [4] (Vero E6 non-tumorous kidney cells, selectivity) is “not cytostatic”. Further, the “logPe PAMPA-BBB (n = 9)” value in data set [6] is recorded as “less than −6.0”.
Turning to `COc1cccc2c1C(=O)c1c(O)c3c(c(O)c1C2=O)C[C@@](O)(C(C)=O)C[C@@H]3O[C@H]1C[C@H](N)[C@H](O)[C@H](C)O1` [Daunomycin, daunomycin, reference compound], the IC50 in data set [1] (setting [12]) is 0.2 ± 0.05 µM; in data set [7] (read-out: IC50 value (50% inhibition) in all cell lines) it was 200 to 1100 nM; in data set [3] (setting [13]), 0.9 ± 0.1 µM; in data set [4] (setting [14]), 1.1 ± 0.05 µM; in data set [5] (setting [15]), 0.7 ± 0.1 µM.
As for `CC1OC(Oc2c(-c3cc(O)c(O)c(O)c3)oc3cc(O)cc(O)c3c2=O)C(O)C(O)C1O` (centres unmarked) [myricetin-3-O-rhamnoside (86)], the IC50 in data set [1] (setting [8]) was greater than 100 µM; in data set [3] (setting [9]), greater than 100 µM; in data set [4] (setting [10]), 3.7 ± 0.7 µM; in data set [5] (setting [11]) it was greater than 100 µM.
As to `CC1OC(Oc2c(-c3ccc(O)c(O)c3)oc3cc(O)cc(O)c3c2=O)C(O)C(O)C1O` (centres unmarked) [quercetin-3-O-rhamnoside (106)], the IC50 is greater than 100 µM in data set [1] (setting [12]), greater than 100 µM in data set [3] (setting [13]), 15.9 ± 0.7 µM in data set [4] (setting [14]) and greater than 100 µM in data set [5] (setting [15]).
Take `O=c1c(OC2OCC(O)C(O)C2O)c(-c2ccc(O)c(O)c2)oc2cc(O)cc(O)c12` (centres unmarked) [quercetin-3-O-xyloside (74)]: the IC50 in data set [1] (setting [8]), in data set [3] (setting [9]), in data set [4] (setting [10]) and in data set [5] (setting [11]) was greater than 100 µM in each case.
As for “myricetin-3-O-rhamnoside (myricitrin) [Compound 86]”, in data set [7], the “effect on the tumor cell lines” value is “no effect”. Further, the IC50 in data set [4] (Vero E6 non-tumorous kidney cells, selectivity, read-out: IC50 (cytostatic activity) on the Vero E6 cells) turned out to be 3.7 µM.
